From article PMC12028158, “Synthesis and In Vitro Evaluation of the Anticancer Effect of Novel Phosphonium Vindoline Derivatives” (International Journal of Molecular Sciences, 2025)

Columns and labels:
[1] = tested on: NIH/3T3 (fibroblast); test: MTT antiproliferative assay; assay type: cell-based; settings: Mus musculus, 72 h
Method: (§1) The antiproliferative properties of the tested compounds were additionally determined using the MTT assay against a panel of human adherent cancer cell lines isolated from breast (MCF-7 and MDA-MB-231), cervical (HeLa and SiHa), and ovarian (A2780) tumors and also on the NIH/3T3 fibroblast cell line (Table 3). IC50 values were calculated from a wider concentration range (0.1–30 μM) when higher than 50% cell growth inhibition was obtained at 10 μM (Table 4). Cisplatin was used as a reference compound. […] The noncancerous fibroblast cell line NIH/3T3 was used to gather preliminary data regarding the cancer selectivity of vindolin derivatives. […] The tumor selectivity of compound 9g, expressed as the ratio of IC50 on cancer cells and fibroblasts, is substantially higher than that of cisplatin (Table 4).
(§2) The antiproliferative effects of the prepared derivatives were evaluated in vitro using the MTT assay against a panel of human adherent cancer cell lines, including breast (MDA-MB-231, MCF-7), cervical (SiHa, HeLa), and ovarian (A2780) cancer cells. The noncancerous fibroblast cell line NIH/3T3 was included to obtain data concerning the tumor selectivity of the test substances. All cell lines were sourced from the European Collection of Cell Cultures (Salisbury, UK), except for SiHa (American Tissue Culture Collection (Manassas, VA, USA). All cell lines were maintained in Eagle’s Minimal Essential Medium (EMEM) supplemented with 10% fetal bovine serum (FBS), 1% non-essential amino acids, and a mixture of penicillin, streptomycin, and amphotericin B. The cells were maintained in a humidified atmosphere containing 5% CO2 at 37 °C. The media and the cell culture supplements were procured from Capricorn Scientific Ltd. (Ebsdorfergrund, Germany). Cells were seeded into 96-well microplates at 5000/well and, the next day, treated with vindoline derivatives at two concentrations (10 or 30 μM) for 72 h under cell culturing conditions. […] When higher than 50% cell growth inhibition was observed, the assay was repeated using a wide concentration range (0.1–30 μM). The IC50 values were calculated using GraphPad Prism software 10.3.1 (GraphPad Software, San Diego, CA, USA). Two independent experiments were performed with at least five replicates per condition.

[2] = tested on: panel of human adherent cancer cell lines; test: MTT antiproliferative assay, whole cancer panel; assay type: cell-based; settings: Homo sapiens
Method: as §1, §2

[3] = tested on: MDA-MB-231; test: MTT antiproliferative assay; assay type: cell-based, human
Method: as §1, §2

[4] = tested on: SiHa; test: MTT antiproliferative assay; assay type: cell-based, human
Method: as §1, §2

[5] = tested on: A2780; test: MTT antiproliferative assay; assay type: cell-based, human
Method: as §1, §2

[6] = tested on: HeLa; test: MTT antiproliferative assay; assay type: cell-based, human
Method: as §1, §2

[7] = tested on: MCF-7; test: MTT antiproliferative assay; assay type: cell-based, human
Method: as §1, §2

[8] = tested on: 60 human tumor cell lines (NCI60); design: method as in PMID 39063170; settings: previous work; cited from earlier work

**Q.** For `CC[C@]12C=CCN3CC[C@@]4(c5ccc(OC)cc5N(C)[C@H]4[C@@](O)(C(=O)OC)[C@@H]1OC(=O)CCC[P+](c1ccccc1)(c1ccccc1)c1ccccn1)[C@@H]32` [9g], which inhibition at 10 µM ([1]; NIH3T3, 10 μM, read-out: Growth Inhibition (%) ± SEM) is on record?
**A.** The inhibition at 10 µM was 34.6 ± 1.11%.

**Q.** What about the inhibition at 30 µM ([1]; NIH3T3, 30 μM, read-out: Growth Inhibition (%) ± SEM (converted)) of the same molecule?
**A.** The inhibition at 30 µM was 77.2%.

**Q.** And the IC50 ([1]; NIH3T3, MTT, read-out: IC50 Value (μM) ± SEM)?
**A.** Its IC50 is 14.37 ± 0.02 µM.

**Q.** And the inhibition at 10 µM ([2]; 10 μM, against all tested cancer cells, read-out: cell growth inhibition)?
**A.** Its inhibition at 10 µM is greater than 60%.

**Q.** And the IC50 ([2]; range over the cancer cells)?
**A.** Its IC50 is 1500 to 6480 nM.

**Q.** And the inhibition at 10 µM ([3]; Homo sapiens, MDA-MB-231, 10 μM, 72 h, read-out: Growth Inhibition (%) ± SEM)?
**A.** Its inhibition at 10 µM is 72.04 ± 0.35%.

**Q.** What about the inhibition at 30 µM ([3]; Homo sapiens, MDA-MB-231, 30 μM, 72 h, read-out: Growth Inhibition (%) ± SEM (converted)) of the same molecule?
**A.** Its inhibition at 30 µM is 87.7%.

**Q.** What about the IC50 ([3]; Homo sapiens, MDA-MB-231, MTT, 72 h, read-out: IC50 Value (μM) ± SEM) of the same molecule?
**A.** The IC50 was 3.35 ± 0.12 µM.

**Q.** And the “Selectivity Ratio” value ([3]; ratio of IC50 on MDA-MB-231 cells and NIH/3T3 fibroblasts)?
**A.** Its value is 0.23.

**Q.** And the inhibition at 10 µM ([4]; Homo sapiens, SiHa, 10 μM, 72 h, read-out: Growth Inhibition (%) ± SEM)?
**A.** Its inhibition at 10 µM is 62.5 ± 0.87%.

**Q.** What about the inhibition at 30 µM ([4]; Homo sapiens, SiHa, 30 μM, 72 h, read-out: Growth Inhibition (%) ± SEM (converted)) of the same molecule?
**A.** The inhibition at 30 µM was 83.8%.

**Q.** What about the IC50 ([4]; Homo sapiens, SiHa, MTT, 72 h, read-out: IC50 Value (μM) ± SEM) of the same molecule?
**A.** Its IC50 is 2.42 ± 0.05 µM.

**Q.** What about the “Selectivity Ratio” value ([4]; ratio of IC50 on SiHa cells and NIH/3T3 fibroblasts) of the same molecule?
**A.** Its value is 0.17.

**Q.** And the inhibition at 10 µM ([5]; Homo sapiens, A2780, 10 μM, 72 h, read-out: Growth Inhibition (%) ± SEM)?
**A.** The inhibition at 10 µM was 79.4 ± 2.63%.

**Q.** And the inhibition at 30 µM ([5]; Homo sapiens, A2780, 30 μM, 72 h, read-out: Growth Inhibition (%) ± SEM (converted))?
**A.** The inhibition at 30 µM was 85.5%.

**Q.** And the IC50 ([5]; Homo sapiens, A2780, MTT, 72 h, read-out: IC50 Value (μM) ± SEM)?
**A.** Its IC50 is 1.5 ± 0.2 µM.

**Q.** And the “Selectivity Ratio” value ([5]; ratio of IC50 on A2780 cells and NIH/3T3 fibroblasts)?
**A.** The value was 0.10.

**Q.** And the inhibition at 10 µM ([6]; Homo sapiens, HeLa, 10 μM, 72 h, read-out: Growth Inhibition (%) ± SEM)?
**A.** The inhibition at 10 µM was 61.5 ± 2.35%.

**Q.** And the inhibition at 30 µM ([6]; Homo sapiens, HeLa, 30 μM, 72 h, read-out: Growth Inhibition (%) ± SEM (converted))?
**A.** The inhibition at 30 µM was 68.5%.

**Q.** What about the IC50 ([6]; Homo sapiens, HeLa, MTT, 72 h, read-out: IC50 Value (μM) ± SEM) of the same molecule?
**A.** The IC50 was 6.48 ± 0.12 µM.

**Q.** What about the “Selectivity Ratio” value ([6]; ratio of IC50 on HeLa cells and NIH/3T3 fibroblasts) of the same molecule?
**A.** The value was 0.45.

**Q.** And the inhibition at 10 µM ([7]; Homo sapiens, MCF7, MCF-7, 10 μM, 72 h, read-out: Growth Inhibition (%) ± SEM)?
**A.** The inhibition at 10 µM was 81.9 ± 0.84%.

**Q.** And the inhibition at 30 µM ([7]; Homo sapiens, MCF7, MCF-7, 30 μM, 72 h, read-out: Growth Inhibition (%) ± SEM (converted))?
**A.** Its inhibition at 30 µM is 89.9%.

**Q.** And the IC50 ([7]; Homo sapiens, MCF7, MCF-7, MTT, 72 h, read-out: IC50 Value (μM) ± SEM)?
**A.** Its IC50 is 2.56 ± 0.1 µM.

**Q.** And the “Selectivity Ratio” value ([7]; ratio of IC50 on MCF-7 cells and NIH/3T3 fibroblasts)?
**A.** The value was 0.18.

**Q.** For `CCC12C=CCN3CC[C@@]4(c5ccc(OC)cc5N(C)[C@H]4[C@@](O)(C(=O)OC)[C@@H]1OC(C)=O)[C@@H]32` (some centres unmarked) [compound 2, vindoline], which “antiproliferative effects (in words)” value [8] is on record?
**A.** The value was “do not exert antiproliferative effects”.
